Test results published in the NIST ThermoML archive (doi:10.1021/acs.jced.7b00024).
Numbers after ± are expanded uncertainties.

Experiment: mean ionic activity coefficient (dimensionless); mn = molality of the nth substance listed, in mol/kg
Conditions: 298.15 K, 100 kPa, Liquid, Potentiometry

[Cl-].[Cs+] [cesium chloride] + O
Conditions | mean ionic activity coefficient
m1 = 0.0085 | 0.905 ± 0.041
m1 = 0.01 | 0.898 ± 0.041
m1 = 0.028 | 0.843 ± 0.041
m1 = 0.0297 | 0.84 ± 0.041
m1 = 0.0574 | 0.794 ± 0.041
m1 = 0.0706 | 0.778 ± 0.041
m1 = 0.0969 | 0.753 ± 0.041
m1 = 0.1497 | 0.715 ± 0.041
m1 = 0.1937 | 0.692 ± 0.041
m1 = 0.2985 | 0.652 ± 0.041
m1 = 0.3873 | 0.628 ± 0.041
m1 = 0.5981 | 0.588 ± 0.041
m1 = 0.6802 | 0.577 ± 0.041
m1 = 0.9033 | 0.552 ± 0.041
m1 = 1.073 | 0.538 ± 0.041
m1 = 1.504 | 0.513 ± 0.041
m1 = 1.56 | 0.51 ± 0.041
m1 = 2.106 | 0.492 ± 0.041
m1 = 2.152 | 0.491 ± 0.041
m1 = 2.947 | 0.477 ± 0.041
m1 = 3.008 | 0.476 ± 0.041
m1 = 3.944 | 0.472 ± 0.041
m1 = 4.002 | 0.471 ± 0.041
